According to patent US12419937B2, “High concentration alpha-glucosidase compositions for the treatment of Pompe disease” (Amicus Therapeutics, Inc., priority 2012, dated 2025):
“Also recorded” adds a separate entry of the source. Where a name gives a salt, the structure may show the parent alone.

What was measured:
[1] = Aggregation of 25 mg/mL Myozyme® (Example 10); assay type: physicochemical; details: 1 mM DNJ with 25 mg/mL Myozyme®; pH 7.4; 37° C.; 4 weeks; listed as DNJ
Experimental: Aggregation was assessed after a 4 week incubation period.
A liquid formulation comprising DNJ and GAA was prepared by dissolving DNJ in water to achieve a concentration of 10 mM DNJ. GAA was reconstituted in 1.8 ml water, and dialyzed overnight in phosphate buffered-saline (pH 7.4). […] of DNJ (10 mM) was then be added to 400 microliters of GAA, such that the GAA was at a concentration of 25 mg/ml.
25 mg/mL Myozyme® was incubated with or without 1 mM DNJ in phosphate-buffered saline at pH 7.4. Aggregation of Myozyme® was assessed after incubation for 4 weeks at 37° C.

[2] = target: T1, recombinant human GAA (Myozyme®) (Homo sapiens, UniProt P10253); assay: SYPRO Orange thermal stability assay (heat-induced denaturation); assay type: physicochemical; details: for stability of Myozyme® (heat required to denature) on addition of the ASSC: pH 7.4, 100 μM 1-DNJ-HCl, vs Myozyme® alone
T1 construct: purchased Genzyme Corp
Source text: The thermal stability assay utilizes heat to induce protein denaturation, which is monitored using a SYPRO Orange dye that fluoresces upon binding to hydrophobic amino acids (which are not exposed in a folded protein).
FIG. 5 depicts the results of a thermal stability assay that utilizes heat to induce protein denaturation, which is monitored using a SYPRO Orange dye that fluoresces upon binding to hydrophobic amino acids (which are not exposed in a folded protein).
Denaturation is monitored using a SYPRO Orange dye that fluoresces upon binding to hydrophobic amino acids (which are not exposed in a folded protein).
The thermal stability was performed at pH 7.4 for two formulations, which corresponds to the pH of the ER.

[3] = Circulating half-life and quadriceps uptake of Myozyme® in rats, tail vein (Example 11); assay type: in vivo, Sprague-Dawley rats; details: 30 mg/kg DNJ with 10 mg/kg Myozyme® via tail vein
Experimental: Sprague-Dawley rats were administered 10 mg/kg Myozyme® or 30 mg/kg DNJ mixed with 10 mg/kg Myozyme® via tail vein. GAA activity was measured in plasma and quadriceps tissue. Baseline GAA activity in quadriceps was subtracted (˜16 nmol/mg protein/hr) from the measured GAA following GAA or DNJ and GAA administration.

[4] = target: T1, recombinant human GAA (Myozyme®); assay: SYPRO Orange protein folding monitored over 24 hours at 37° C.; assay type: physicochemical; details: 100 μM 1-DNJ-HCl, plasma pH
Experimental: FIG. 2B depicts a parallel SYPRO Orange thermal stability experiment to determine if the loss of enzyme activity shown in FIG. 2A, particularly the loss of Myozyme® activity at ER pH (7.4), correlates with protein unfolding and denaturation.
In order to determine if loss of initial enzyme activity is correlated to failure to maintain a proper conformation, a SYPRO Orange thermal stability experiment was performed on the samples above as generally described in Example 1. […] Based on this experiment, the % of GAA folded was estimated and plotted in FIG. 2B.

[5] = target: T1, recombinant human GAA (Myozyme®); assay: Residual GAA enzyme activity in buffer at 37° C. (4-MU-α-glucose); assay type: biochemical; details: 50 μM 1-DNJ, plasma pH (7.4), 24 hours
Experimental: GAA activity was evaluated to assess the ability of an ASSC of GAA to prolong the activity of the rhGAA over time. Myozyme® (45 nM) was incubated in pH 7.4 or pH 5.2 buffer with or without 50 μM 1-DNJ at 37° C. over 24 hours. Samples were assayed for GAA enzyme activity using 4-MU-α-glucose at 0, 3, 6 and 24 hours and the residual GAA activity was expressed as % of initial activity.
Residual GAA activity was determined for four formulations:
Activity was measured, based on the % of initial activity (t=0) over 24 hours. Samples were assayed for GAA enzyme activity based on the hydrolysis of the fluorogenic substrate 4-MU-α-glucose at 0, 3, 6 and 24 hours. The GAA activity was expressed as % of initial activity, i.e. residual activity.

[6] = Circulating rhGAA after subcutaneous Myozyme® with or without DNJ (FIG. 14); assay type: in vivo; details: DNJ co-formulated with 20 mg/kg Myozyme® vs 20 mg/kg Myozyme® without DNJ
rhGAA (e.g., Myozyme®) = target: T2, rhGAA (e.g., Myozyme®) (Homo sapiens, UniProt P10253); assay: rhGAA enzyme inactivation in citrate anti-coagulated whole blood at 37° C. (Examples 7, 8); assay type: in vitro ADME
T2 construct: purchased Genzyme Corp; host or cells: Chinese hamster ovary cell line
Experimental: Aliquots were collected at 0, 2, 4, 8 and 24 hrs and centrifuged to obtain plasma. These plasma samples were then diluted in potassium acetate buffer (pH 4.0) and assayed for GAA activity using the 4-methylumbeliferyl-α-glucose (4-MUG) fluorogenic substrate. The measured GAA activity for individual samples at each time point was normalized to the 0 hr and expressed as % of initial activity. Data from 4 independent experiments were analyzed to obtain the mean (and standard deviation) and plotted versus time to assess the loss of enzyme activity over this time course.
Aliquots were collected at 0, 3 and 6 hrs and centrifuged to obtain plasma. These plasma samples were then diluted in potassium acetate buffer (pH 4.0) and assayed for GAA activity using the 4-methylumbeliferyl-α-glucose (4-MUG) fluorogenic substrate. The measured GAA activity for individual samples at each time point was normalized to the 0 hr and expressed as % of initial activity.
Moreover, since Myozyme® has a long plasma half-life (reported to be more than 3 hrs), there is a high probability that an appreciable amount of the enzyme remains in the circulation many hours after the infusion that would also be prone to inactivation.
Based on human plasma PK data, these concentrations are readily obtainable in the clinic.

[7] = rat, in vivo, po, 30 mg/kg
GAA KO mice [8] = assay: rhGAA activity in heart and diaphragm of GAA KO mouse (Example 6); assay type: in vivo; details: co-administered with 1-DNJ-HCl vs ERT monotherapy
Experimental: Heart and Diaphragm tissue homogenates were harvested and rhGAA activity was measured using the fluorogenic substrate (4-MUG).

GAA KO mice [9] = assay: Myozyme® tissue uptake in GAA KO mice with and without oral 1-DNJ-HCl (Example 3); assay type: in vivo, mouse
Experimental: Five groups of GAA KO mice were administered one of the following formulations: […]
(2) 10 mg/kg of Myozyme® IV once per week, for up to three weeks
Tissue homogenates were generated for analysis. Enzymatic activity as determined using a 4-MUG fluorogenic substrate assay.

[10] = system: cell lines derived from late-onset Pompe patients with the IVS 1 (−13 T>G) splicing defect; assay: GAA levels in cell lines derived from late-onset Pompe patients; assay type: cell-based, human; details: alone and in combination with hrGAA
GAA KO mice [11] = assay: rhGAA activity uptake after Myozyme® IV bolus in GAA KO mice (comparison study of Table 3); assay type: in vivo, mouse; details: 4 doses 20 mg/kg IV bolus at 2 week intervals, 3 days after the last dose
GAA KO mice [12] = assay: Tissue glycogen reduction in GAA KO mice (Example 9); assay type: in vivo, mouse; details: Myozyme® 40 mg/kg IV every other week for 8 weeks ± 30 mg/kg oral 1-DNJ-HCl, relative to untreated mice
Experimental: Glycogen reduction with Myozyme® alone was 93±1%, 41±4%, 69±3%, and 18±4%, in heart (A), diaphragm (B), soleus (C), and quadriceps (D), respectively, relative to untreated mice.
Twelve-week old male GAA KO mice were administered a single dose of Myozyme® (40 mg/kg) via bolus tail vein injection every other week for 8 weeks. To prevent anaphylaxis, before the third and fourth Myozyme® injection, diphenhydramine (10 mg/kg intraperitoneally) was administered 10 min before Myozyme® injection. […] Mice were euthanized 14 days after the last Myozyme® administration.
Glycogen levels in heart, diaphragm, soleus, and quadriceps were then measured. […] Briefly, homogenates were prepared by homogenizing ˜50 mg tissue for 3-5 seconds on ice with a microhomogenizer in […] deionized water. Supernatants were heat denatured (99° C. for 10 min) to remove endogenous amyloglucosidase activity. Denatured lysates (4 μL) were then analyzed in duplicate by addition of 36 μL water with and without 10 μL of 800 U/mL of amyloglucosidase (Sigma Aldrich, St. Louis, MO) and incubated for 1 hour at 50° C. The reaction was stopped by inactivation at 100° C. for 10 min. Finally, 200 μL of glucose reagent (Sigma) was added absorbance read at 340 nm on Spectramax. A standard curve ranging from 5 μg/mL to 400 μg/mL Type III rabbit liver glycogen (Sigma) was run each day for conversion of absorbance to absolute glycogen units. Simultaneously, the amount of protein was determined in tissue homogenates using the Micro BCA Protein Assay (Pierce, Rockford, IL) following the manufacturer's instructions. The glycogen content of each sample was normalized to protein, and data were finally expressed as micrograms of glycogen per milligram of protein (μg/mg protein).

[13] = reported; cited from earlier work

OC[C@H]1NC[C@H](O)[C@@H](O)[C@@H]1O [1-DNJ, 1-deoxynojirimycin]
aggregation of Myozyme® [1]: reduces aggregation
stability of Myozyme® (heat required to denature) on addition of the ASSC [2]: significantly increased
tissue uptake of Myozyme® in quadriceps [3]: increased
effect on GAA denaturation and loss of enzyme activity [4]: can prevent GAA denaturation and loss of enzyme activity
effect on loss of GAA enzyme activity [5]: ameliorates the loss of GAA enzyme activity
circulating levels of rhGAA [6]: increased the circulating levels of rhGAA

OC[C@H]1NC[C@H](O)[C@@H](O)[C@@H]1O [1-DNJ-HCl, 1-deoxynojirimycin hydrochloride]
GAA thermostability (GAA's melting temperature) ([2]; 1, 10, 100 μM 1-DNJ-HCl, dose-dependent): increases GAA thermostability
stability of Myozyme® (heat required to denature) on addition of the ASSC ([2]; hydrochloride): required significantly more heat to denature
loss of rhGAA activity in whole blood (rhGAA (e.g., Myozyme®); 2.5 μM 1-DNJ-HCl, 6-hr time course): ~20%
effect on rhGAA enzyme inactivation in whole blood (rhGAA (e.g., Myozyme®); 50 μM 1-DNJ-HCl, Myozyme® 0.5 μM, up to 24 hrs, hydrochloride): stabilized rhGAA and prevented enzyme inactivation; also recorded: prevents rhGAA enzyme inactivation
stabilizing rhGAA in whole blood, concentration comparison (rhGAA (e.g., Myozyme®); 50 and 100 μM 1-DNJ-HCl, 6 hrs): best for stabilizing rhGAA and preventing enzyme inactivation
increase of plasma half-life of rhGAA [7]: 2 fold
rhGAA uptake in the heart and diaphragm (GAA KO mice [8]): increased
Myozyme® tissue uptake (as a measure of GAA activity), effect of coadministration (GAA KO mice [9]; 10, 100, 1000 mg/kg oral 1-DNJ-HCl with 10 mg/kg Myozyme® IV weekly, up to 7 days post injection): dose-dependent increase in Myozyme® uptake
GAA levels [10]: increased GAA levels

alglucosidase alfa [Myozyme®]
stability of Myozyme® at lysosomal pH vs ER pH ([2]; pH 5.2 vs pH 7.4, no ASSC): much more stable at lysosomal pH (5.2) than at ER pH (7.4)
rhGAA activity uptake, Biceps (GAA KO mice [11]): 10.1 nmol/mg/h
rhGAA activity uptake, Diaphragm (GAA KO mice [11]): 7.1 nmol/mg/h
rhGAA activity uptake, Gastrocnemius (GAA KO mice [11]): 17.9 nmol/mg/h
rhGAA activity uptake, Heart (GAA KO mice [11]): 1.8 nmol/mg/h
rhGAA activity uptake, Quadriceps (GAA KO mice [11]): 6.9 nmol/mg/h
rhGAA activity uptake, Skin (GAA KO mice [11]): 27.1 nmol/mg/h
rhGAA activity uptake, Soleus (GAA KO mice [11]): 8.0 nmol/mg/h
rhGAA activity uptake, Tongue (GAA KO mice [11]): 12.4 nmol/mg/h
rhGAA activity uptake, Triceps (GAA KO mice [11]): 3.9 nmol/mg/h
glycogen reduction in diaphragm (GAA KO mice [12]): 41±4%
glycogen reduction in heart (GAA KO mice [12]): 93±1%
glycogen reduction in quadriceps (GAA KO mice [12]): 18±4%
glycogen reduction in soleus (GAA KO mice [12]): 69±3%
plasma half-life [13]: more than 3 hrs
Myozyme® tissue uptake (as a measure of GAA activity) over time (GAA KO mice [9]; 10 mg/kg IV weekly, 7 days post injection): declined at 7 days post injection
